From PubChem BioAssay (NCI)
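Values below derive from 48-hour exposures of cells grown in 96-well plates, with endpoints linearly interpolated between the two concentrations bracketing the appropriate inhibition level. TGI is the concentration that stops growth completely.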

How the values were obtained:
Assay in all cases: NCI-60 cell line screen, 48 h
[1] = tested on: KM12 colon
[2] = tested on: SN12C renal
[3] = tested on: HS 578T breast
[4] = tested on: OVCAR-3 ovarian
[5] = tested on: SW-620 colon
[6] = tested on: MDA-MB-231 breast
[7] = tested on: SK-OV-3 ovarian
[8] = tested on: A549 NSCLC
[9] = tested on: RXF 393 renal
[10] = tested on: ACHN renal
[11] = tested on: IGROV1 ovarian
[12] = tested on: NCI-H522 lung
[13] = tested on: CAKI-1 renal
[14] = tested on: K-562 leukemia
[15] = tested on: TK-10 renal
[16] = tested on: MALME-3M melanoma
[17] = tested on: UACC-257 melanoma
[18] = tested on: SF-295 CNS
[19] = tested on: RPMI-8226 leukemia
[20] = tested on: COLO 205 colon
[21] = tested on: HL-60(TB) leukemia
[22] = tested on: HT29 colon
[23] = tested on: MCF7 breast
[24] = tested on: U251 CNS
[25] = tested on: OVCAR-4 ovarian
[26] = tested on: OVCAR-5 ovarian
[27] = tested on: PC-3 prostate
[28] = tested on: NCI-H460 lung
[29] = tested on: MDA-N
[30] = tested on: HCT-116 colon
[31] = tested on: EKVX NSCLC
[32] = tested on: NCI-H226 lung
[33] = tested on: SK-MEL-5 melanoma
[34] = tested on: MOLT-4 leukemia
[35] = tested on: SNB-19 CNS
[36] = tested on: 786-0 renal
[37] = tested on: SK-MEL-28 melanoma
[38] = tested on: SK-MEL-2 melanoma
[39] = tested on: SR leukemia
[40] = tested on: LOX IMVI melanoma
[41] = tested on: SF-268 CNS
[42] = tested on: NCI-H23 lung
[43] = tested on: MDA-MB-435
[44] = tested on: CCRF-CEM leukemia
[45] = tested on: M14 melanoma
[46] = tested on: DU-145 prostate
[47] = tested on: HOP-62 NSCLC
[48] = tested on: UO-31 renal
[49] = tested on: UACC-62 melanoma
[50] = tested on: OVCAR-8 ovarian
[51] = tested on: HCT-15 colon
[52] = tested on: T-47D breast
[53] = tested on: BT-549 breast
[54] = tested on: SNB-75 CNS
[55] = tested on: NCI/ADR-RES ovarian
[56] = tested on: SF-539 CNS
[57] = tested on: HOP-92 NSCLC
[58] = tested on: HCC-2998 colon

SMILES: CN(CCCCCl)P(=O)(OCC1=CC(=O)c2ccccc2C1=O)OC[C@H]1O[C@@H](n2cc(F)c(=O)[nH]c2=O)C[C@@H]1O (some centres not stated)
- TGI [1]: 22.3 µM
- TGI [2]: 1.21 µM
- TGI [3]: 0.603 µM
- TGI [4]: 12.8 µM
- TGI [5]: 23.1 µM
- TGI [6]: 19.3 µM
- TGI [7]: > 42.8 µM
- TGI [8]: 0.553 µM
- TGI [9]: 2.78 µM
- TGI [10]: 14.7 µM
- TGI [11]: 14.3 µM
- TGI [12]: 10.9 µM
- TGI [13]: 0.627 µM
- TGI [14]: 40.9 µM
- TGI [15]: 17.7 µM
- TGI [16]: 2.79 µM
- TGI [17]: 24 µM
- TGI [18]: 0.452 µM
- TGI [19]: 21.8 µM
- TGI [20]: > 26 µM
- TGI [21]: 16.5 µM
- TGI [22]: 34.4 µM
- TGI [23]: 8.68 µM
- TGI [24]: 18.4 µM
- TGI [25]: 14.9 µM
- TGI [26]: 25.2 µM
- TGI [27]: 18.8 µM
- TGI [28]: 7.9 µM
- TGI [29]: 2.19 µM
- TGI [30]: 13.5 µM
- TGI [31]: 21.2 µM
- TGI [32]: 21 µM
- TGI [33]: 0.647 µM
- TGI [34]: 32.2 µM
- TGI [35]: > 40.6 µM
- TGI [36]: 18.3 µM
- TGI [37]: 23.8 µM
- TGI [38]: 23.4 µM
- TGI [39]: 28.9 µM
- TGI [40]: 10.7 µM
- TGI [41]: 12.6 µM
- TGI [42]: 5.07 µM
- TGI [43]: 2.21 µM
- TGI [44]: 29.4 µM
- TGI [45]: 3.52 µM
- TGI [46]: 5.53 µM
- TGI [47]: 22.6 µM
- TGI [48]: 15.9 µM
- TGI [49]: 1.93 µM
- TGI [50]: 15.7 µM
- TGI [51]: 20.3 µM
- TGI [52]: 3.65 µM
- TGI [53]: 22.3 µM
- TGI [54]: 0.418 µM

SMILES: O=CN(CCN1CCCC1)C1CCc2cc(Cl)c(Cl)cc2C1 (configuration not stated)
- TGI [1]: 20.9 µM
- TGI [2]: > 100 µM
- TGI [3]: 42.3 µM
- TGI [4]: 30.6 µM
- TGI [5]: > 100 µM
- TGI [6]: 26.1 µM
- TGI [7]: 29 µM
- TGI [8]: 23.2 µM
- TGI [9]: 28.8 µM
- TGI [11]: 97.6 µM
- TGI [12]: 23 µM
- TGI [13]: 53.8 µM
- TGI [14]: 51.6 µM
- TGI [15]: 34.8 µM
- TGI [16]: 27.3 µM
- TGI [55]: 61.2 µM
- TGI [17]: 30.5 µM
- TGI [18]: 19 µM
- TGI [19]: 45.3 µM
- TGI [20]: 37.8 µM
- TGI [21]: 37.2 µM
- TGI [22]: 18.2 µM
- TGI [24]: 24.6 µM
- TGI [25]: > 100 µM
- TGI [26]: 40.7 µM
- TGI [27]: 28.9 µM
- TGI [28]: 21.4 µM
- TGI [56]: 48.2 µM
- TGI [29]: 23.4 µM
- TGI [30]: 24.9 µM
- TGI [57]: > 100 µM
- TGI [31]: > 100 µM
- TGI [33]: 42 µM
- TGI [34]: 55 µM
- TGI [35]: 75 µM
- TGI [36]: 19.9 µM
- TGI [39]: 60.7 µM
- TGI [40]: 27.3 µM
- TGI [41]: > 100 µM
- TGI [42]: 60 µM
- TGI [43]: 28.6 µM
- TGI [44]: 43.9 µM
- TGI [45]: 29.3 µM
- TGI [46]: > 100 µM
- TGI [47]: 34.9 µM
- TGI [48]: 27.1 µM
- TGI [58]: 31.2 µM
- TGI [50]: 48.6 µM
- TGI [51]: 31.8 µM
- TGI [52]: 41.3 µM
- TGI [53]: 27.7 µM

SMILES: Cc1ccc(S(=O)(=O)NC(=O)NC(C(=O)O)C(C)C)cc1 (configuration not stated)
- TGI [1]: > 100 µM
- TGI [2]: > 100 µM
- TGI [3]: > 100 µM
- TGI [5]: > 100 µM
- TGI [6]: > 100 µM
- TGI [7]: > 100 µM
- TGI [8]: > 100 µM
- TGI [9]: > 100 µM
- TGI [10]: > 100 µM
- TGI [11]: > 100 µM
- TGI [12]: > 100 µM
- TGI [14]: > 100 µM
- TGI [15]: > 100 µM
- TGI [16]: > 100 µM
- TGI [55]: > 100 µM
- TGI [17]: > 100 µM
- TGI [18]: > 100 µM
- TGI [19]: > 100 µM
- TGI [20]: > 100 µM
- TGI [21]: > 100 µM
- TGI [22]: > 100 µM
- TGI [23]: > 100 µM
- TGI [24]: > 100 µM
- TGI [25]: > 100 µM
- TGI [26]: > 100 µM
- TGI [27]: > 100 µM
- TGI [28]: > 100 µM
- TGI [56]: > 100 µM
- TGI [29]: > 100 µM
- TGI [30]: > 100 µM
- TGI [57]: > 100 µM
- TGI [33]: > 100 µM
- TGI [34]: > 100 µM
- TGI [35]: > 100 µM
- TGI [36]: > 100 µM
- TGI [37]: > 100 µM
- TGI [38]: > 100 µM
- TGI [39]: > 100 µM
- TGI [40]: > 100 µM
- TGI [41]: > 100 µM
- TGI [42]: > 100 µM
- TGI [44]: > 100 µM
- TGI [45]: > 100 µM
- TGI [46]: > 100 µM
- TGI [47]: > 100 µM
- TGI [48]: > 100 µM
- TGI [49]: > 100 µM
- TGI [50]: > 100 µM
- TGI [51]: > 100 µM
- TGI [52]: > 100 µM
- TGI [53]: > 100 µM
- TGI [54]: > 100 µM
